Patent US20070039241A1, “Floatable granular substrate for culturing plant material” (GSF - Forschungszentrum fur Umwelt und Gesundheit, priority 2003, published 2007)

System: barley seedlings
Assay: Heavy metal uptake of barley seedlings on floating culture substrate or agar substrate (ICP-MS of leaves and roots)
Format: in vivo, Hordeum vulgare cv. Barke
Conditions: for Concentration of heavy metal ions in barley seedlings, Shoot, Agar: grown on agar; for Concentration of heavy metal ions in barley seedlings, Shoot, Agar / Concentration of heavy metal ions in barley seedlings, Root, Floatable Substrate / Concentration of heavy metal ions in barley seedlings, Shoot, Floatable Substrate: 6 day old plants; for Concentration of heavy metal ions in barley seedlings, Root, Floatable Substrate / Concentration of heavy metal ions in barley seedlings, Shoot, Floatable Substrate: grown on floatable substrate; for Factor by which concentration in the roots was increased compared to shoot tissue: seedlings grown on floatable substrate
Protocol: MS-basal Medium or Hoagland's medium was supplemented with heavy metals as follows: stock solutions of Hg Cl2 (0.1 M) or Cd(NO3)2•4H2O (0.1 M) were applied to the autoclaved medium when it had cooled to about 55° C. such that final heavy metal-ion concentrations of 10, 20, 30 and 40 μM were obtained.
Agar culturing substrate was prepared by adding 1.5 wt/vol % agar (Sigma) to Hoagland's or MS-basal medium. After heating to 100° C., respective amounts of heavy metal salts were added when the medium had cooled down to […]. Then the mixture was poured into Phytotray II™ culture vessels (Sigma) and left to cool for subsequent use.
Barley caryopses prepared and seeded onto a floatable substrate layer as in Example 1. Alternatively, the caryopses were directly placed on culturing agar as described above.
Seedlings were grown as described, and leaves and roots of 6 day old plants were harvested and weighed to determine the fresh weight. Samples were shock-frozen in liquid nitrogen and stored at −80° C.
Total mercury and cadmium content of leaves and roots was determined by electrothermal vaporization inductively coupled plasma-mass spectrometry (Michalke et al., 1997).

| SMILES | Concentration of heavy metal ions in barley seedlings, Shoot, Agar (added concentration 10 μM) [µM] | Concentration of heavy metal ions in barley seedlings, Shoot, Agar (added concentration 20 μM) [µM] | Concentration of heavy metal ions in barley seedlings, Shoot, Agar (added concentration 30 μM) [µM] | Concentration of heavy metal ions in barley seedlings, Shoot, Agar (added concentration 40 μM) [µM] | Concentration of heavy metal ions in barley seedlings, Root, Floatable Substrate (added concentration 10 μM) [µM] | Concentration of heavy metal ions in barley seedlings, Shoot, Floatable Substrate (added concentration 10 μM) [µM] | Concentration of heavy metal ions in barley seedlings, Root, Floatable Substrate (added concentration 20 μM) [µM] | Concentration of heavy metal ions in barley seedlings, Shoot, Floatable Substrate (added concentration 20 μM) [µM] | Concentration of heavy metal ions in barley seedlings, Root, Floatable Substrate (added concentration 30 μM) [µM] | Concentration of heavy metal ions in barley seedlings, Shoot, Floatable Substrate (added concentration 30 μM) [µM] | Concentration of heavy metal ions in barley seedlings, Root, Floatable Substrate (added concentration 40 μM) [µM] | Concentration of heavy metal ions in barley seedlings, Shoot, Floatable Substrate (added concentration 40 μM) [µM] | Factor by which concentration in the roots was increased compared to shoot tissue |
| --- | --- | --- | --- | --- | --- | --- | --- | --- | --- | --- | --- | --- | --- |
| O.O.O.O.O=[N+]([O-])[O-].O=[N+]([O-])[O-].[Cd+2] [Cd^2+, Cd(NO3)2•4H2O] | 15 | 21 | 41 | 53 | 479 | 4 | 1270 | 27 | 1450 | 27 | 2880 | 59 | 60 |
| [Cl][Hg][Cl] [Hg^2+, Hg Cl2] | 62 | 171 | 254 | 252 | 697 | 54 | 851 | 144 | 2060 | 239 | 2430 | 296 | 10 |
